PubChem BioAssay (NCI)
Several values for one entry are separate records, joined by “and”; a condition that tells them apart may be missing. Identical values can stand only once.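 Each compound was tested at five concentrations against cells in 96-well plates for 48 hours. GI50 = concentration required for 50% inhibition of growth. Definition used: TGI = concentration required for complete inhibition of growth.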

Legend:
Assay in all cases: DTP human tumour cell line panel, 48 h
HS 578T breast = test system: HS 578T breast
SR leukemia = test system: SR leukemia
U251 CNS = test system: U251 CNS
SNB-75 CNS = test system: SNB-75 CNS
HCT-15 colon = test system: HCT-15 colon
HOP-62 NSCLC = test system: HOP-62 NSCLC
RXF 393 renal = test system: RXF 393 renal
UACC-62 melanoma = test system: UACC-62 melanoma
M14 melanoma = test system: M14 melanoma
SF-268 CNS = test system: SF-268 CNS

SMILES	GI50 (HS 578T breast)	TGI (HS 578T breast) [µM]	GI50 (SR leukemia) [µM]	TGI (SR leukemia) [µM]	GI50 (U251 CNS)	TGI (U251 CNS) [µM]	GI50 (SNB-75 CNS)	TGI (SNB-75 CNS) [µM]	GI50 (HCT-15 colon)	TGI (HCT-15 colon) [µM]	GI50 (HOP-62 NSCLC)	TGI (HOP-62 NSCLC) [µM]	GI50 (RXF 393 renal)	TGI (RXF 393 renal) [µM]	GI50 (UACC-62 melanoma)	TGI (UACC-62 melanoma) [µM]	GI50 (M14 melanoma)	TGI (M14 melanoma) [µM]	GI50 (SF-268 CNS)	TGI (SF-268 CNS) [µM]
COc1ccc(/C=C2\CCCC3=C2N=C2SC=NN2C3c2ccc(OC)c(OC)c2)cc1OC (stereo not drawn)	28.2 µM	> 100	5.65	66.1	22.7 µM	> 100	9.38 µM	44.1	5.58 µM	60.5	24.3 µM	> 100	4.91 µM	24.3	4.21 µM	80	11.9 µM	> 100	19.9 µM	> 100
Cc1cc(NC(=O)C(=O)Cc2nc3ccccc3s2)ccc1Cl	–	> 100	–	> 100	–	> 100	–	> 100	–	> 100	–	> 100	–	> 100	–	> 100	–	> 100	–	> 100
C(#Cc1ccccc1C#Cc1ccccn1)c1ccc(OCCCCCCOc2ccc(C#Cc3ccccc3C#Cc3ccccn3)cc2)cc1	5.79 µM	15.7	2.45	19.4	4.55 µM	10.9	5.26 µM	13.8	1.76 µM	9.37	6.51 µM	14.6	6.91 µM	13.6	0.35 µM	5.46	7.47 µM	17.6	2.52 µM	10.8
COc1ccc(C2SC(C)C(=O)N2NC(=O)C(O)c2ccccc2)cc1 (stereo not drawn)	> 100 µM	> 100	63	> 100	> 100 µM	> 100	60.3 µM	> 100	> 100 µM	> 100	> 100 µM	> 100	> 100 µM	> 100	> 100 µM	> 100	> 100 µM	> 100	> 100 µM	> 100
Nc1nn(C(=O)Nc2ccc(Cc3ccccc3)cc2)c2ccccc12	17.2 µM	71.8	0.0153	0.0822	13.9 µM	30.2	17 µM	47.4	1.08 µM	> 100	13.7 µM	46.5	22.2 µM	58.2	0.353 µM	> 100	0.772 µM	> 100	4.66 µM	32.3
COc1cc([C@@H]2c3cc4c(cc3[C@H](O)[C@H]3COC(=O)[C@@H]23)OCO4)cc(OC)c1OC	0.298 µM and 0.293 µM	> 5.83	0.222	> 10	0.46 µM and 0.382 µM	> 100	0.256 µM and 0.0455 µM	> 100	0.415 µM and 0.327 µM	> 100	0.533 µM and 0.226 µM	> 100	0.211 µM and 0.316 µM	–	0.407 µM and 0.153 µM	> 100	0.355 µM and 0.135 µM	> 100	0.722 µM and 0.445 µM	> 100
CCCNNC(=O)c1ccc(CNC(=O)/C=C/c2ccccc2)cc1	0.207 µM	> 20.8	0.18	> 100	0.198 µM	1.71	0.311 µM	> 23.5	0.305 µM	> 39	0.11 µM	> 100	0.18 µM	0.501	0.0825 µM	0.249	0.079 µM	> 100	0.316 µM	–
NS(=O)(=O)c1ccc(NCc2cnc3ccccc3c2)cc1	–	> 100	–	> 100	–	> 100	–	> 100	–	> 100	–	> 100	–	> 100	–	> 100	–	> 100	–	> 100
CSc1ccc2c(c1)C(=O)c1c-2n(CCCN=[N+]=[N-])c(=O)c2cc([N+](=O)[O-])ccc12	> 61.1 µM	> 100	0.2	5.8	1.1 µM	> 100	7.42 µM	> 79.7	> 87.1 µM	> 100	0.623 µM	29	> 34.4 µM	> 100	0.683 µM	> 88.7	1.29 µM	> 100	1.98 µM	> 100
